Measured values reported in US3933853A, “Indole derivatives” (Clin Midy, priority 1972, dated 1976).
Where two headings read alike, the source gives them in different places.

What was measured:
[1] = test system: visceral pain in the mouse; assay: Analgesic effect, Koster and Anderson test (visceral pain induced by intraperitoneal acetic acid); type: in vivo; conditions: oral, 30 minutes before acetic acid injection, read-out: ED50 (50% effective dose reducing by one half the number of symptoms of pain)
Experimental: A visceral pain is induced in the mouse by intraperitonal injection of a dilute solution of acetic acid (Koster and Anderson test).
The animals, which are starved on the day before the experiment, and separated into random batches of five, are treated with the products under test 30 minutes before injection of the irritant. Treatment was always performed orally.
After the acetic solution is injected the animals show symptoms of pain (stretching of the abdomen with extension of the back feet) which are counted during two spells of five minutes for each lot: from the fifth to the tenth minute and from the fifteen to the twentieth minute respectively after the acid is injected.
The ED50 value is expressed in mg per kg bodyweight.
These doses were obtained by oral administration of the products of the invention.

central nervous system = assay: Tranquillising effect, exploration test (perforated board); type: in vivo; conditions: mouse, oral route
Experimental: Exploration test (perforated board): the number of holes explored by an animal (mouse) which has unrestricted movement and is placed on the board for the first time, are recorded.

Acute toxicity (LD50) = conditions: in vivo, mouse
Description: Moreover, the compounds of the present invention are not, in general, very toxic.
Toxicity, expressed in mg/kg bodyweight, is given below for certain other compounds when administered by the sub-cutaneous route and by the oral route.

[2] = sc, sub-cutaneous route, read-out: LD50 / toxicity, sub-cutaneous
[3] = oral route, read-out: LD50 / toxicity, oral

Structure (SMILES) | ED50 [1] | ED50 (central nervous system) | LD50 (Acute toxicity (LD50); [2]) | LD50 (Acute toxicity (LD50); [3])
CC(=O)Cc1cn(CCN(C)C)c2ccccc12 [compound 5353] | 1.5 mg/kg | 5 mg/kg | – | –
CC(Cc1cn(CCN(C)C)c2ccccc12)=NO [compound 5354] | 3 mg/kg | – | – | –
CC(Cc1cn(CCN(C)C)c2ccccc12)=NOCCN(C)C [compound 5444] | 6.25 to 12.5 mg/kg | – | – | –
CC(=O)ON=C(C)Cc1cn(CCN(C)C)c2ccccc12 [compound 5472] | 0.75 to 1.5 mg/kg | 5 mg/kg | 400 mg/kg | 200 mg/kg
CCC(=O)ON=C(C)Cc1cn(CCN(C)C)c2ccccc12 [compound 5473] | 0.75 to 1.5 mg/kg | – | 200 to 400 mg/kg | > 400 mg/kg
CCN(CC)CCn1cc(CC(C)=O)c2ccccc21 [compound 5477] | – | – | 200 mg/kg | 400 mg/kg
CC(O)Cc1cn(CCN(C)C)c2ccccc12 (centres unmarked) [compound 5607] | 0.75 mg/kg | – | 800 mg/kg | > 800 mg/kg
CCN(CC)CCn1cc(CC(C)O)c2ccccc21 (centres unmarked) [compound 5938] | 1.5 mg/kg | – | – | –
COc1ccc(-n2cc(CC(C)O)c3ccccc32)cc1 (centres unmarked) [compound 5992] | – | 1 mg/kg | > 400 mg/kg | > 400 mg/kg
